# From patent publication US20090239891A1 (priority 2006, published 2009)
# Assay: Analgesic effect (% MPE) by tail flick method after intravenous injection
# Type: in vivo
# Details: mice
substance,measurement,setting,value
buprenorphine hydrochloride,% MPE,0.08 hours after i.v. 2.4 mg/kg,0%
same,% MPE,0.25 hours after i.v. 2.4 mg/kg,53.7%
same,% MPE,0.5 hours after i.v. 2.4 mg/kg,96.3%
same,% MPE,1 hour after i.v. 2.4 mg/kg,100%
same,% MPE,2 hours after i.v. 2.4 mg/kg,77.4%
same,% MPE,3 hours after i.v. 2.4 mg/kg,93.3%
same,% MPE,5 hours after i.v. 2.4 mg/kg,100%
same,% MPE,7 hours after i.v. 2.4 mg/kg,72.7%
same,% MPE,"9 hours after i.v. 2.4 mg/kg, hydrochloride, 2.4 mg/kg",54%
same,% MPE,"9 hours after i.v. 2.4 mg/kg, listed as buprenorphine, hydrochloride, 2.4 mg/kg",54.4%
same,% MPE,"12 hours after i.v. 2.4 mg/kg, hydrochloride, 2.4 mg/kg",0%
same,% MPE,"12 hours after i.v. 2.4 mg/kg, listed as buprenorphine, hydrochloride, 2.4 mg/kg",8.1%
same,% MPE,18 hours after i.v. 2.4 mg/kg,0%
same,% MPE,24 hours after i.v. 2.4 mg/kg,0%
same,onset of analgesic effect,after i.v. 2.4 mg/kg,15 min
same,duration of analgesic effect,after i.v. bolus 2.4 mg/kg,9 h
same,analgesic effect observed,between 12 and 24 hours after i.v. 2.4 mg/kg,No analgesic effect
